Results from ChEMBL document CHEMBL1201862, “PubChem BioAssay data set” (2004).
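48-hour exposure; five concentrations; linearly interpolated endpoints. GI50 = concentration required for 50% inhibition of growth.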 The source made the active and inactive calls. Rule as the data show it: active = GI50 up to about 1.1 µM and inactive = higher.

Columns and labels:
Experiment in all cases: NCI-60 cell line screen, 48 h
A549 = system: A549
ACHN = system: ACHN
COLO 205 = system: COLO 205
DMS-114 = system: DMS-114
HCC 2998 = system: HCC 2998
HOP-92 = system: HOP-92
HT-29 = system: HT-29
NCI-H460 = system: NCI-H460
SF-268 = system: SF-268
SK-MEL-28 = system: SK-MEL-28
SK-OV-3 = system: SK-OV-3
BT-549 = system: BT-549
KM12 = system: KM12
MDA-MB-435 = system: MDA-MB-435
MOLT-4 = system: MOLT-4
NCI-H522 = system: NCI-H522
NCI/ADR-RES = system: NCI/ADR-RES
PC-3 = system: PC-3
SF-539 = system: SF-539
UACC-257 = system: UACC-257

| SMILES | GI50 (A549) | GI50 (ACHN) | GI50 (COLO 205) | GI50 (DMS-114) | GI50 (HCC 2998) | GI50 (HOP-92) | GI50 (HT-29) | GI50 (NCI-H460) | GI50 (SF-268) | GI50 (SK-MEL-28) | GI50 (SK-OV-3) | GI50 (BT-549) | GI50 (KM12) | GI50 (MDA-MB-435) | GI50 (MOLT-4) | GI50 (NCI-H522) | GI50 (NCI/ADR-RES) | GI50 (PC-3) | GI50 (SF-539) | GI50 (UACC-257) |
| --- | --- | --- | --- | --- | --- | --- | --- | --- | --- | --- | --- | --- | --- | --- | --- | --- | --- | --- | --- | --- |
| CCOC(=O)C1(C)CCCCC(=O)N1 (stereo not drawn) | > 100 µM (inactive) | > 100 µM (inactive) | > 100 µM (inactive) | > 100 µM (inactive) | > 100 µM (inactive) | > 100 µM (inactive) | > 100 µM (inactive) | > 100 µM (inactive) | > 100 µM (inactive) | > 100 µM (inactive) | > 100 µM (inactive) | – | – | – | – | – | – | – | – | – |
| Cc1cc(=O)n2nc(CN3CCCCC3)sc2n1 | > 100 µM (inactive) | > 100 µM (inactive) | > 100 µM (inactive) | – | > 100 µM (inactive) | > 100 µM (inactive) | > 100 µM (inactive) | > 100 µM (inactive) | > 100 µM (inactive) | > 100 µM (inactive) | > 100 µM (inactive) | > 100 µM (inactive) | > 100 µM (inactive) | > 100 µM (inactive) | > 100 µM (inactive) | > 100 µM (inactive) | > 100 µM (inactive) | > 100 µM (inactive) | > 100 µM (inactive) | > 100 µM (inactive) |
| COc1cc([C@@H]2c3cc4c(cc3[C@@H](OC(=O)c3cccc(N)c3)C3COC(=O)[C@@H]32)OCO4)cc(OC)c1O (stereo partly drawn) | 1.63 µM (inactive) | 1.96 µM (inactive) | 11.3 µM (inactive) | 3.66 µM (inactive) | 9.93 µM (inactive) | – | 3.13 µM (inactive) | 0.671 µM (active) | 1.47 µM (inactive) | 0.91 µM (active) | 11.5 µM (inactive) | – | 17.8 µM (inactive) | – | 1.91 µM (inactive) | – | – | – | 0.621 µM (active) | 5.69 µM (inactive) |
| O=C(Sc1c(-c2ccccc2)c(=O)n(-c2ccccc2)c(=S)n1-c1ccccc1)c1ccco1 | > 100 µM (inactive) | > 100 µM (inactive) | > 100 µM (inactive) | – | > 100 µM (inactive) | > 52.2 µM (inactive) | > 100 µM (inactive) | > 100 µM (inactive) | > 100 µM (inactive) | > 100 µM (inactive) | > 100 µM (inactive) | > 100 µM (inactive) | > 100 µM (inactive) | > 100 µM (inactive) | 27.5 µM (inactive) | > 76.9 µM (inactive) | > 100 µM (inactive) | > 100 µM (inactive) | > 100 µM (inactive) | > 31.6 µM (inactive) |
| O=[N+]([O-])/C=C/c1cn(CCCCCn2cc(/C=C/[N+](=O)[O-])c3ccccc32)c2ccccc12 | 2.96 µM (inactive) | 4.66 µM (inactive) | 4.3 µM (inactive) | – | 1.04 µM (active) | 19.8 µM (inactive) | 1.56 µM (inactive) | 1.79 µM (inactive) | 2.18 µM (inactive) | 1.12 µM (active) | 23.2 µM (inactive) | 1.28 µM (inactive) | 1.69 µM (inactive) | 0.953 µM (active) | 3.05 µM (inactive) | 10.4 µM (inactive) | 10.2 µM (inactive) | 3.58 µM (inactive) | 1.88 µM (inactive) | 3.27 µM (inactive) |
| S=C1Cc2cc3ccccc3nc2-c2ccccc2N1 | 26.1 µM (inactive) | 24 µM (inactive) | 54 µM (inactive) | – | 16.2 µM (inactive) | 8.87 µM (inactive) | > 47.2 µM (inactive) | 15.1 µM (inactive) | 7.01 µM (inactive) | 27.5 µM (inactive) | 5.68 µM (inactive) | > 33.8 µM (inactive) | 19.3 µM (inactive) | 29.7 µM (inactive) | > 96.8 µM (inactive) | 24.9 µM (inactive) | 10.1 µM (inactive) | 36 µM (inactive) | 12.6 µM (inactive) | 29.1 µM (inactive) |
| CC(=O)/C(=N\N=C(N)N)c1ccccc1 | > 100 µM (inactive) | > 100 µM (inactive) | 35.1 µM (inactive) | – | 28.1 µM (inactive) | > 100 µM (inactive) | > 100 µM (inactive) | > 100 µM (inactive) | > 100 µM (inactive) | > 100 µM (inactive) | > 100 µM (inactive) | > 100 µM (inactive) | > 100 µM (inactive) | > 100 µM (inactive) | > 100 µM (inactive) | 59.8 µM (inactive) | > 100 µM (inactive) | > 100 µM (inactive) | > 100 µM (inactive) | > 100 µM (inactive) |
| COC(=O)c1c(O)ccc2c1c1c(n2Cc2ccccc2Cl)C(=O)c2ccccc2C1=O | 8.69 µM (inactive) | 16.5 µM (inactive) | 4.13 µM (inactive) | – | 14.6 µM (inactive) | 14.8 µM (inactive) | 1.17 µM (inactive) | 6.78 µM (inactive) | 12.4 µM (inactive) | 15.6 µM (inactive) | 12.9 µM (inactive) | 12.6 µM (inactive) | 10.1 µM (inactive) | 10.7 µM (inactive) | 7.03 µM (inactive) | 10.9 µM (inactive) | 12.1 µM (inactive) | 11.5 µM (inactive) | 15.4 µM (inactive) | 17.9 µM (inactive) |
| CC1=C(C)C(=O)c2c(cc3ccccn23)C1=O | 18.4 µM (inactive) | 32.2 µM (inactive) | 20.3 µM (inactive) | 12.9 µM (inactive) | 15.5 µM (inactive) | – | 18.5 µM (inactive) | 15.5 µM (inactive) | 20.9 µM (inactive) | 19 µM (inactive) | 20 µM (inactive) | – | 16.6 µM (inactive) | – | 24.2 µM (inactive) | – | – | – | 20 µM (inactive) | – |
| O=C(O)Cn1ccnc1[N+](=O)[O-] | > 100 µM (inactive) | > 100 µM (inactive) | > 100 µM (inactive) | – | > 100 µM (inactive) | > 100 µM (inactive) | > 100 µM (inactive) | > 100 µM (inactive) | > 100 µM (inactive) | > 100 µM (inactive) | > 100 µM (inactive) | > 100 µM (inactive) | > 100 µM (inactive) | > 100 µM (inactive) | > 100 µM (inactive) | > 100 µM (inactive) | > 100 µM (inactive) | > 100 µM (inactive) | > 100 µM (inactive) | > 100 µM (inactive) |
| CCOC(=O)C1(Cc2ccc3ccccc3c2)CCCCCN1 (stereo not drawn) | 52.4 µM (inactive) | 58.2 µM (inactive) | 18.7 µM (inactive) | 26.5 µM (inactive) | 19.1 µM (inactive) | 13.9 µM (inactive) | 12.6 µM (inactive) | 18.4 µM (inactive) | 58.5 µM (inactive) | 23.3 µM (inactive) | 32.7 µM (inactive) | – | – | – | 4.91 µM (inactive) | – | – | – | – | – |
| C[C@]12CC[C@H]3[C@@H](CCC4=C[C@@H](OC5OCC(OC6OC(CO)C(O)C(O)C6O)C(O)C5O)CC[C@@]43C=O)[C@@]1(O)CCC2C1=CC(=O)OC1 (stereo partly drawn) | 0.165 µM (active) | 0.137 µM (active) | 1.35 µM (inactive) | – | 0.421 µM (active) | 1.11 µM (active) | 0.832 µM (active) | 0.0982 µM (active) | 0.36 µM (active) | 2.57 µM (inactive) | 1.13 µM (inactive) | 0.211 µM (active) | 2.71 µM (inactive) | 0.843 µM (active) | 0.0986 µM (active) | 0.203 µM (active) | 0.469 µM (active) | 0.631 µM (active) | 0.391 µM (active) | 1.42 µM (inactive) |
| COc1cc(N(C)C)c(OC)cc1/C=C\c1ccnc2ccccc12 | 7.11 µM (inactive) | 6.12 µM (inactive) | 3.55 µM (inactive) | – | 3.62 µM (inactive) | 2.74 µM (inactive) | 3.1 µM (inactive) | 2.96 µM (inactive) | 3.63 µM (inactive) | 1.86 µM (inactive) | > 10 µM (inactive) | 4.34 µM (inactive) | 0.46 µM (active) | 1.75 µM (inactive) | 3.4 µM (inactive) | 4.38 µM (inactive) | 2.56 µM (inactive) | 2.92 µM (inactive) | 2.33 µM (inactive) | 3.73 µM (inactive) |
| c1csc(-c2cc(-c3ccsc3)c(-c3ccsc3)s2)c1 | > 100 µM (inactive) | > 100 µM (inactive) | 89.7 µM (inactive) | – | 68.7 µM (inactive) | > 100 µM (inactive) | > 100 µM (inactive) | > 100 µM (inactive) | > 100 µM (inactive) | > 100 µM (inactive) | > 100 µM (inactive) | > 100 µM (inactive) | > 100 µM (inactive) | > 100 µM (inactive) | > 100 µM (inactive) | > 100 µM (inactive) | > 100 µM (inactive) | > 100 µM (inactive) | > 100 µM (inactive) | > 100 µM (inactive) |
| Cc1cc(=O)oc2cc(OC(=O)Nc3ccccc3)ccc12 | 62.1 µM (inactive) | 74 µM (inactive) | 53.5 µM (inactive) | – | 84.3 µM (inactive) | 29.3 µM (inactive) | > 100 µM (inactive) | 84.7 µM (inactive) | > 100 µM (inactive) | > 100 µM (inactive) | 70.6 µM (inactive) | 22.9 µM (inactive) | 32.4 µM (inactive) | > 100 µM (inactive) | 40.8 µM (inactive) | 53.1 µM (inactive) | 63.2 µM (inactive) | 48.8 µM (inactive) | > 100 µM (inactive) | > 100 µM (inactive) |
| CCOC(=O)CCC(NC(=O)C(N)Cc1ccc(N(CCCl)CCCl)cc1)C(=O)OCC (stereo not drawn) | 2.72 µM (inactive) | 0.0532 µM (active) | 0.735 µM (active) | – | 0.662 µM (active) | 0.253 µM (active) | 0.716 µM (active) | 0.0406 µM (active) | 0.592 µM (active) | 0.719 µM (active) | 1.3 µM (inactive) | 4.66 µM (inactive) | 1.52 µM (inactive) | 1.49 µM (inactive) | 0.0451 µM (active) | 0.285 µM (active) | 1.33 µM (inactive) | 1.34 µM (inactive) | 0.741 µM (active) | 1.22 µM (inactive) |
